Measured values from ChEMBL document CHEMBL1275577, “Study of the in vitro activities of rifaximin and comparator agents against 536 anaerobic intestinal bacteria from the perspective of potential utility in pathology involving bowel flora” (Antimicrob Agents Chemother, 2009).

Tests used:
Clostridium hathewayi = experiment: Antimicrobial activity against Clostridium hathewayi by Wadsworth agar dilution method; type: functional; settings: Hungatella hathewayi
[1] = system: Propionibacterium propionicum; experiment: Antimicrobial activity against Propionibacterium propionicum by Wadsworth agar dilution method; type: functional; settings: Arachnia propionica
Lactobacillus sp. = experiment: Antimicrobial activity against Lactobacillus sp. by Wadsworth agar dilution method; type: functional
[2] = system: Clostridium paraputrificum; experiment: Antimicrobial activity against Clostridium paraputrificum by Wadsworth agar dilution method; type: functional
[3] = system: Clostridium aminobutyricum; experiment: Antimicrobial activity against Clostridium aminobutyricum by Wadsworth agar dilution method; type: functional
Clostridioides difficile = experiment: Antimicrobial activity against Clostridium difficile by Wadsworth agar dilution method; type: functional
Eubacterium rectale = experiment: Antimicrobial activity against Eubacterium rectale by Wadsworth agar dilution method; type: functional; settings: Agathobacter rectalis
Parabacteroides merdae = experiment: Antimicrobial activity against Parabacteroides merdae by Wadsworth agar dilution method; type: functional
[4] = system: Paraclostridium bifermentans; experiment: Antimicrobial activity against Clostridium bifermentans by Wadsworth agar dilution method; type: functional
Clostridium glycolicum = experiment: Antimicrobial activity against Clostridium glycolicum by Wadsworth agar dilution method; type: functional; settings: Terrisporobacter glycolicus
[5] = system: Prevotella melaninogenica; experiment: Antimicrobial activity against Prevotella melaninogenica by Wadsworth agar dilution method; type: functional
[6] = Antimicrobial activity against Bifidobacterium infantis by Wadsworth agar dilution method; type: functional, Bifidobacterium longum subsp. infantis; settings: Bifidobacterium longum
Parvimonas micra = experiment: Antimicrobial activity against Peptostreptococcus micros by Wadsworth agar dilution method; type: functional
Cutibacterium acnes = experiment: Antimicrobial activity against Propionibacterium acnes by Wadsworth agar dilution method; type: functional
Clostridium nexile = experiment: Antimicrobial activity against Clostridium nexile by Wadsworth agar dilution method; type: functional; settings: Faecalimonas nexilis
[7] = system: Paeniclostridium sordellii; experiment: Antimicrobial activity against Clostridium sordellii by Wadsworth agar dilution method; type: functional; settings: Paraclostridium sordellii
Prevotella bivia = experiment: Antimicrobial activity against Prevotella bivia by Wadsworth agar dilution method; type: functional
[8] = Antimicrobial activity against Bifidobacterium pseudocatenulatum by Wadsworth agar dilution method; type: functional
[9] = system: Limosilactobacillus reuteri; experiment: Antimicrobial activity against Lactobacillus reuteri by Wadsworth agar dilution method; type: functional
Clostridium bartlettii = experiment: Antimicrobial activity against Clostridium bartlettii by Wadsworth agar dilution method; type: functional; settings: Intestinibacter bartlettii
Bacteroides caccae = experiment: Antimicrobial activity against Bacteroides caccae by Wadsworth agar dilution method; type: functional
Ruminococcus obeum = experiment: Antimicrobial activity against Ruminococcus obeum by Wadsworth agar dilution method; type: functional; settings: Blautia obeum
[10] = system: Lactiplantibacillus plantarum; experiment: Antimicrobial activity against Lactobacillus plantarum by Wadsworth agar dilution method; type: functional
Peptoniphilus harei = experiment: Antimicrobial activity against Peptoniphilus harei by Wadsworth agar dilution method; type: functional
Anaerococcus tetradius = experiment: Antimicrobial activity against Anaerococcus tetradius by Wadsworth agar dilution method; type: functional
Bifidobacterium longum = experiment: Antimicrobial activity against Bifidobacterium longum by Wadsworth agar dilution method; type: functional
Flavonifractor plautii = experiment: Antimicrobial activity against Clostridium orbiscindens by Wadsworth agar dilution method; type: functional
[11] = system: Peptostreptococcus anaerobius; experiment: Antimicrobial activity against Peptostreptococcus anaerobius by Wadsworth agar dilution method; type: functional
Eubacterium biforme = experiment: Antimicrobial activity against Eubacterium biforme by Wadsworth agar dilution method; type: functional; settings: Holdemanella biformis
Clostridium septicum = experiment: Antimicrobial activity against Clostridium septicum by Wadsworth agar dilution method; type: functional
Prevotella disiens = experiment: Antimicrobial activity against Prevotella disiens by Wadsworth agar dilution method; type: functional
Desulfovibrio sp. = experiment: Antimicrobial activity against Desulfovibrio sp. by Wadsworth agar dilution method; type: functional
Blautia producta = experiment: Antimicrobial activity against Ruminococcus productus by Wadsworth agar dilution method; type: functional
Ruminococcus torques = experiment: Antimicrobial activity against Ruminococcus torques by Wadsworth agar dilution method; type: functional; settings: Mediterraneibacter torques
Holdemania filiformis = experiment: Antimicrobial activity against Holdemania filiformis by Wadsworth agar dilution method; type: functional
Fusobacterium mortiferum [12] = experiment: Antimicrobial activity against Fusobacterium mortiferum by Wadsworth agar dilution method in presence of beta-lactamase inhibitor Sulbactam; type: functional
Eubacterium cylindroides = experiment: Antimicrobial activity against Eubacterium cylindroides by Wadsworth agar dilution method; type: functional; settings: Faecalitalea cylindroides
Fusobacterium mortiferum [13] = experiment: Antimicrobial activity against Clostridium rectum by Wadsworth agar dilution method; type: functional
Prevotella intermedia = experiment: Antimicrobial activity against Prevotella intermedia by Wadsworth agar dilution method; type: functional
Porphyromonas somerae = experiment: Antimicrobial activity against Porphyromonas somerae by Wadsworth agar dilution method; type: functional
Thomasclavelia ramosa = experiment: Antimicrobial activity against Clostridium ramosum by Wadsworth agar dilution method; type: functional
Lactobacillus jensenii = experiment: Antimicrobial activity against Lactobacillus jensenii by Wadsworth agar dilution method; type: functional
[14] = system: Lacticaseibacillus rhamnosus; experiment: Antimicrobial activity against Lactobacillus rhamnosus by Wadsworth agar dilution method; type: functional
Collinsella aerofaciens = experiment: Antimicrobial activity against Colinsella aerofaciens by Wadsworth agar dilution method; type: functional
Clostridium perfringens = experiment: Antimicrobial activity against Clostridium perfringens by Wadsworth agar dilution method; type: functional
[Clostridium] innocuum = Antimicrobial activity against Clostridium innocuum by Wadsworth agar dilution method; type: functional
[15] = system: Ruminococcus flavefaciens; experiment: Antimicrobial activity against Ruminococcus flavefaciens by Wadsworth agar dilution method; type: functional

CN[C@H](CC(C)C)C(=O)N[C@H]1C(=O)N[C@@H](CC(N)=O)C(=O)N[C@H]2C(=O)N[C@H]3C(=O)N[C@H](C(=O)N[C@H](C(=O)O)c4cc(O)cc(O)c4-c4cc3ccc4O)[C@H](O)c3ccc(c(Cl)c3)Oc3cc2cc(c3O[C@@H]2O[C@H](CO)[C@@H](O)[C@H](O)[C@H]2O[C@H]2C[C@](C)(N)[C@H](O)[C@H](C)O2)Oc2ccc(cc2Cl)[C@H]1O [VANCOMYCIN]
128 mg/L: MIC50 (Parabacteroides merdae) | MIC90 (Parabacteroides merdae) | MIC50 [5] | MIC50 (Prevotella bivia) | MIC50 (Prevotella disiens) | MIC50 (Prevotella intermedia)
32 mg/L: MIC50 (Bacteroides caccae)
2 mg/L: MIC90 (Clostridioides difficile)
8 mg/L: MIC50 (Flavonifractor plautii) | MIC90 (Flavonifractor plautii) | MIC90 (Porphyromonas somerae)
> 1020 mg/L: MIC50 (Desulfovibrio sp.) | MIC90 (Desulfovibrio sp.) | MIC90 (Fusobacterium mortiferum [12])
1 mg/L: MIC50 (Clostridium hathewayi) | MIC90 (Clostridium hathewayi) | MIC50 [1] | MIC50 (Lactobacillus sp.) | MIC50 [2] | MIC50 [3] | MIC (Clostridioides difficile) | MIC50 (Clostridioides difficile) | MIC50 (Eubacterium rectale) | MIC50 [4] | MIC50 (Clostridium glycolicum) | MIC50 [6] | MIC90 (Parvimonas micra) | MIC50 (Cutibacterium acnes) | MIC50 (Clostridium nexile) | MIC50 [7] | MIC50 [8] | MIC50 [9] | MIC50 (Clostridium bartlettii) | MIC90 (Ruminococcus obeum) | MIC50 [10] | MIC90 (Peptoniphilus harei) | MIC90 (Anaerococcus tetradius) | MIC50 (Bifidobacterium longum) | MIC90 [11] | MIC50 (Eubacterium biforme) | MIC50 (Clostridium septicum) | MIC90 (Blautia producta) | MIC90 (Ruminococcus torques) | MIC50 (Holdemania filiformis) | MIC50 (Eubacterium cylindroides) | MIC50 (Fusobacterium mortiferum [13]) | MIC50 (Thomasclavelia ramosa) | MIC50 (Lactobacillus jensenii) | MIC50 [14] | MIC50 (Collinsella aerofaciens) | MIC50 (Clostridium perfringens) | MIC90 (Clostridium perfringens) | MIC90 [15]
0.5 mg/L: MIC50 (Parvimonas micra) | MIC50 (Ruminococcus obeum) | MIC50 (Peptoniphilus harei) | MIC50 (Anaerococcus tetradius) | MIC50 [11] | MIC50 (Blautia producta) | MIC50 (Ruminococcus torques) | MIC50 [15]
4 mg/L: MIC90 [2] | MIC90 [3] | MIC90 [4] | MIC90 (Clostridium glycolicum) | MIC90 (Clostridium nexile) | MIC90 [7] | MIC90 (Clostridium bartlettii) | MIC90 (Clostridium septicum) | MIC90 (Fusobacterium mortiferum [13]) | MIC50 (Porphyromonas somerae) | MIC90 (Thomasclavelia ramosa)
256 mg/L: MIC90 [5] | MIC90 (Prevotella bivia) | MIC90 (Prevotella disiens) | MIC50 (Fusobacterium mortiferum [12]) | MIC90 (Prevotella intermedia) | MIC90 ([Clostridium] innocuum)
16 mg/L: MIC ([Clostridium] innocuum) | MIC50 ([Clostridium] innocuum)
64 mg/L: MIC90 [1] | MIC90 (Lactobacillus sp.) | MIC90 (Eubacterium rectale) | MIC90 [6] | MIC90 (Cutibacterium acnes) | MIC90 [8] | MIC90 [9] | MIC90 (Bacteroides caccae) | MIC90 [10] | MIC90 (Bifidobacterium longum) | MIC90 (Eubacterium biforme) | MIC90 (Holdemania filiformis) | MIC90 (Eubacterium cylindroides) | MIC90 (Lactobacillus jensenii) | MIC90 [14] | MIC90 (Collinsella aerofaciens)
